Measurements from the supplement of paper PMC12137928.
Where a name gives a salt, the structure may show the parent alone.

System: HCT116
Conditions: 72 h
Summary of the method: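 IC50 and maximal efficacy were derived from four-parameter Hill curve fits. The underlying CellTiter-Glo luminescence was scaled so that vehicle equals 0% and positive control equals -100%, and was then pattern-corrected. HCT116 cells had been seeded in 1536-well plates at 250 per well.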

Row | Structure (SMILES) | IC50 cell viability (ICRF193 0 nM) | IC50 cell viability (ICRF193 200 nM)
1 | O=S(=O)(O)CCCS(=O)(=O)O [1,3-Propanedisulfonic acid disodium salt] | > 45.8 µM | > 45.8 µM
2 | CN[C@@H]1[C@H](O[C@H]2[C@H](O[C@H]3[C@H](O)[C@@H](O)[C@H](N=C(N)N)[C@@H](O)[C@@H]3N=C(N)N)O[C@@H](C)[C@]2(O)C=O)O[C@@H](CO)[C@H](O)[C@H]1O [Streptomycin sulfate] | > 45.8 µM | > 45.8 µM
3 | CC1(C)S[C@@H]2[C@H](/N=C/N3CCCCCC3)C(=O)N2[C@H]1C(=O)O [Amdinocillin] | > 45.8 µM | > 45.8 µM
4 | CC(Cc1ccccc1)NCCCCl (stereo not given) [Mefenorex] | > 45.8 µM | > 45.8 µM
5 | CC(C)(C)NCC(O)c1ccc(O)c(CO)c1 (stereo not given) [Salbutamol] | > 45.8 µM | > 45.8 µM
6 | N[C@H]1C(O)O[C@H](CO)[C@@H](O)[C@@H]1O (stereo not given in full) [Glucosamine hydrochloride] | > 45.8 µM | > 45.8 µM
7 | CCCCC(F)(F)[C@@]1(O)CC[C@H]2[C@@H](CC(=O)[C@@H]2CCCCCCC(=O)O)O1 [Lubiprostone] | > 45.8 µM | > 45.8 µM
8 | NC(=O)c1ncn([C@@H]2O[C@H](CO)[C@@H](O)[C@H]2O)c1N [Acadesine] | > 45.8 µM | > 45.8 µM
9 | FC(F)(F)c1cccc(C2=CCN(CCc3ccc4ccccc4c3)CC2)c1 [Xaliproden hydrochloride] | > 45.8 µM | > 45.8 µM
10 | CCCC1C(=O)N2C(N(C)C)=Nc3ccc(C)cc3N2C1=O (stereo not given) [Azapropazone] | > 45.8 µM | > 45.8 µM
11 | Cc1c(C)c2c(c(C)c1OC(=O)CCC(=O)O)CC[C@@](C)(CCC[C@H](C)CCC[C@H](C)CCCC(C)C)O2 [D-alpha-Tocopherol succinate] | > 45.8 µM | > 45.8 µM
12 | CCN(CCCCOC(=O)c1ccc(OC)c(OC)c1)C(C)Cc1ccc(OC)cc1 (stereo not given) [Mebeverine hydrochloride] | > 45.8 µM | > 45.8 µM
13 | CNC(=O)OCc1cccc(COC(=O)NC)n1 [Pyricarbate] | > 45.8 µM | > 45.8 µM

Second part, the molecule after the results:

Row | IC50 cell viability (ICRF193 0 nM) | IC50 cell viability (ICRF193 200 nM) | Structure (SMILES)
14 | > 45.8 µM | > 45.8 µM | Cc1ccccc1C(=O)N1CC/C(=N\OS(=O)(=O)O)c2ccc(Cl)cc21 [Alilusem potassium]
15 | > 45.8 µM | > 45.8 µM | OCc1ccccc1O [Salicyl alcohol]
16 | > 45.8 µM | > 45.8 µM | C#CCN[C@@H]1CCc2ccccc21 [Rasagiline mesylate]
17 | > 45.8 µM | > 45.8 µM | CNCc1cc(-c2ccccc2F)n(S(=O)(=O)c2cccnc2)c1 [TAK 438]
18 | > 45.8 µM | > 45.8 µM | COCC1=C(C(=O)OC(C)OC(=O)OC(C)C)N2C(=O)[C@@H](NC(=O)/C(=N\OC)c3csc(N)n3)[C@H]2SC1 (stereo not given in full) [CEFPODOXIME PROXETIL]
19 | > 45.8 µM | > 45.8 µM | CCCC(=O)OCOC(=O)C1=C(C)NC(C)=C(C(=O)OC)C1c1cccc(Cl)c1Cl (stereo not given) [Clevidipine]
20 | > 45.8 µM | > 45.8 µM | O=C(/C=C/c1ccccc1)OCc1ccccc1 [Benzyl cinnamate]
21 | > 45.8 µM | > 45.8 µM | N[C@@H](C(=O)N[C@@H]1C(=O)N2C(C(=O)O)=C(Cl)CC[C@H]12)c1ccccc1 [Loracarbef]
22 | > 45.8 µM | > 45.8 µM | CCOC(=O)[C@H](CCc1ccccc1)N[C@H]1CS[C@H](c2cccs2)CN(CC(=O)O)C1=O [Temocapril hydrochloride]
23 | > 45.8 µM | > 45.8 µM | COc1ccc2c(c1)c(CC(=O)OCC(=O)O)c(C)n2C(=O)c1ccc(Cl)cc1 [Acemetacin]
24 | > 45.8 µM | > 45.8 µM | CCC(=O)NC[C@@H]1C[C@H]1c1cccc2c1CCO2 [Tasimelteon]
25 | > 45.8 µM | > 45.8 µM | CO[C@@]1(NC(=O)CSC(F)F)C(=O)N2C(C(=O)O)=C(CSc3nnnn3CCO)CO[C@@H]21 [Flomoxef]
